Like-named read-outs stand apart in the source and are kept apart here.
Test system: MV-4-11 cells
Assay: Inhibition of tumor cell proliferation (CellTiter-Glo)
Assay type: cell-based
Settings: Homo sapiens, read-out: IC50 of inhibitory activity of tumor cell proliferation
Experimental: MV-4-11 cells were diluted with medium (RPM1640+10% FBS+1% PS) and plated at 4000 cells/well in a white-walled clear-bottom 96-well plate. MV-4-11 cells were plated and incubated in a 5% CO2, 37° C. incubator for 2 hours. Cells were treated with the indicated concentration of compound or DMSO (control), and placed in a 5% CO2, 37° C. incubator for 72 h after dosing. After the end of the culture, equilibrate at room temperature for 30 min, add 100 μl of CellTiter-Glo® Reagent to each well, and shake the microplate shaker for 2 min. After 10 min of incubation at room temperature, the luminescence was measured by a microplate reader, and the cell-free wells were used as the background wells. CC-90009 (celegen patent phase I) was used as a control, and its structural formula was as follows: 0

[1] = MV4-11, MV-4-11 cells, 72 h, CellTiter-Glo

Compound | IC50 [1] [nM] | IC50 (MV4-11, 72 h) [nM]
O=C(C#Cc1cccc(C(=O)O)c1)NCc1ccc2c(c1)CN(C1CCC(=O)NC1=O)C2=O (stereo not shown) [Compound 76] | > 100 | 
O=C(C#Cc1ccc2scnc2c1)NCc1ccc2c(c1)CN(C1CCC(=O)NC1=O)C2=O (stereo not shown) [Compound 121] | < 1 | 
O=C(C#CN1CCCC1)NCc1ccc2c(c1)CN(C1CCC(=O)NC1=O)C2=O (stereo not shown) [Compound 126] | > 100 | 
O=C(C#Cc1coc2ccccc12)NCc1ccc2c(c1)CN(C1CCC(=O)NC1=O)C2=O (stereo not shown) [Compound 99] | < 1 | 
O=C(C#Cc1ccc2nccn2c1)NCc1ccc2c(c1)CN(C1CCC(=O)NC1=O)C2=O (stereo not shown) [Compound 45] | > 100 | 
CCCC(=O)OCOC(=O)c1ccccc1C#CC(=O)NCc1ccc2c(c1)CN(C1CCC(=O)NC1=O)C2=O (stereo not shown) [Compound 94] | > 100 | 
CC(C)(C)[Si](C)(C)OCC#CC(=O)NCc1ccc2c(c1)CN(C1CCC(=O)NC1=O)C2=O (stereo not shown) [Compound 21] | < 1 | 
CC(=O)c1cccc(C#CC(=O)NCc2ccc3c(c2)CN(C2CCC(=O)NC2=O)C3=O)c1 (stereo not shown) [Compound 117] | < 1 | 
O=C(O)CCC(=O)Oc1ccc(C#CC(=O)NCc2ccc3c(c2)CN(C2CCC(=O)NC2=O)C3=O)cc1 (stereo not shown) [Compound 86] | 10 to 100 | 
Cn1cnc(C#CC(=O)NCc2ccc3c(c2)CN(C2CCC(=O)NC2=O)C3=O)c1 (stereo not shown) [Compound 33] | > 100 | 
Cc1ccnc(Cl)c1C#CC(=O)NCc1ccc2c(c1)CN(C1CCC(=O)NC1=O)C2=O (stereo not shown) [Compound 67] | 1 to 10 | 
O=C(C#Cc1ccccc1C(=O)O)NCc1ccc2c(c1)CN(C1CCC(=O)NC1=O)C2=O (stereo not shown) [Compound 75] | > 100 | 
O=C(C#Cc1ccccc1OC(=O)N1CCC(N2CCCCC2)CC1)NCc1ccc2c(c1)CN(C1CCC(=O)NC1=O)C2=O (stereo not shown) [Compound 74] |  | > 100
O=C(C#Cc1ccc(OP(=O)(Oc2ccccc2)Oc2ccccc2)cc1)NCc1ccc2c(c1)CN(C1CCC(=O)NC1=O)C2=O (stereo not shown) [Compound 81] |  | < 1
O=C(C#CC1CCCC1)NCc1ccc2c(c1)CN(C1CCC(=O)NC1=O)C2=O (stereo not shown) [Compound 111] | 1 to 10 | 
CCOC(=O)c1ccc(C#CC(=O)NCc2ccc3c(c2)CN(C2CCC(=O)NC2=O)C3=O)nc1 (stereo not shown) [Compound 29] | > 100 | 
Nc1ccc(-c2ccc(C#CC(=O)NCc3ccc4c(c3)CN(C3CCC(=O)NC3=O)C4=O)cc2)cc1 (stereo not shown) [Compound 56] | < 1 | 

Compound | IC50 [1] [nM] | IC50 (MV4-11, 72 h) [nM]
O=C(C#Cc1c(O)cccc1Cl)NCc1ccc2c(c1)CN(C1CCC(=O)NC1=O)C2=O (stereo not shown) [Compound 65] | 1 to 10 | 
O=C(C#CC1CCCCN1)NCc1ccc2c(c1)CN(C1CCC(=O)NC1=O)C2=O (stereo not shown) [Compound 64] | > 100 | 
O=C(C#Cc1ccc(C(F)(F)F)nc1)NCc1ccc2c(c1)CN(C1CCC(=O)NC1=O)C2=O (stereo not shown) [Compound 60] | 10 to 100 | 
C[Si](C)(C)C#CC(=O)NCc1ccc2c(c1)CN(C1CCC(=O)NC1=O)C2=O (stereo not shown) [Compound 20] | > 100 | 
O=C(C#CC1CCCCC1)NCc1ccc2c(c1)CN(C1CCC(=O)NC1=O)C2=O (stereo not shown) [Compound 62] | < 1 | 
CC(C)(C)OC(=O)N1CCCCC1C#CC(=O)NCc1ccc2c(c1)CN(C1CCC(=O)NC1=O)C2=O (stereo not shown) [Compound 63] | < 1 | 
O=C(C#Cc1ccc2ncoc2c1)NCc1ccc2c(c1)CN(C1CCC(=O)NC1=O)C2=O (stereo not shown) [Compound 122] | 10 to 100 | 
O=C(C#CCO)NCc1ccc2c(c1)CN(C1CCC(=O)NC1=O)C2=O (stereo not shown) [Compound 22] | > 100 | 
CC1=C(C(=O)NCc2ccc3c(c2)CN(C2CCC(=O)NC2=O)C3=O)C(=O)c2ccccc21 (stereo not shown) [Compound 119] | > 100 | 
O=C1CCC(N2Cc3cc(CNC(=O)/C(F)=C/c4cccc(F)c4)ccc3C2=O)C(=O)N1 (stereo not shown) [Compound 14] | > 100 | 
CC(C)(C)OC(=O)c1ccc(C#CC(=O)NCc2ccc3c(c2)CN(C2CCC(=O)NC2=O)C3=O)cc1 (stereo not shown) [Compound 25] | < 1 | 
O=C(C#CCN1CCCC1)NCc1ccc2c(c1)CN(C1CCC(=O)NC1=O)C2=O (stereo not shown) [Compound 125] | > 100 | 
O=C(C#Cc1ccc(-c2ccc([N+](=O)[O-])cc2)cc1)NCc1ccc2c(c1)CN(C1CCC(=O)NC1=O)C2=O (stereo not shown) [Compound 55] | < 1 | 
CC1(C)COP(=O)(Oc2ccccc2C#CC(=O)NCc2ccc3c(c2)CN(C2CCC(=O)NC2=O)C3=O)OC1 (stereo not shown) [Compound 97] |  | 1 to 10
CC(=O)c1ccccc1C#CC(=O)NCc1ccc2c(c1)CN(C1CCC(=O)NC1=O)C2=O (stereo not shown) [Compound 116] | 1 to 10 | 
O=C(C#CC1CC1)NCc1ccc2c(c1)CN(C1CCC(=O)NC1=O)C2=O (stereo not shown) [Compound 61] | > 100 | 

Now from value to compound, other results behind:

IC50 [1] [nM] | Compound | IC50 (MV4-11, 72 h) [nM]
> 100 | N#Cc1ncccc1C#CC(=O)NCc1ccc2c(c1)CN(C1CCC(=O)NC1=O)C2=O (stereo not shown) [Compound 43] | 
< 1 | O=C(C#Cc1ccc(Cl)cc1)NCc1ccc2c(c1)CN(C1CCC(=O)NC1=O)C2=O (stereo not shown) [Compound 7] | 
1 to 10 | O=C(C#Cc1cccc(O)c1)NCc1ccc2c(c1)CN(C1CCC(=O)NC1=O)C2=O (stereo not shown) [Compound 19] | 
1 to 10 | O=C(C#Cc1ccc(F)nc1F)NCc1ccc2c(c1)CN(C1CCC(=O)NC1=O)C2=O (stereo not shown) [Compound 41] | 
< 1 | Cc1cccc(C#CC(=O)NCc2ccc3c(c2)CN(C2CCC(=O)NC2=O)C3=O)c1O (stereo not shown) [Compound 113] | 
10 to 100 | Cc1ccc(C#CC(=O)NCc2ccc3c(c2)CN(C2CCC(=O)NC2=O)C3=O)cn1 (stereo not shown) [Compound 31] | 
1 to 10 | Cn1cnc2c(C#CC(=O)NCc3ccc4c(c3)CN(C3CCC(=O)NC3=O)C4=O)cccc21 (stereo not shown) [Compound 133] | 
1 to 10 | O=C(C#Cc1ccc2[nH]ncc2c1F)NCc1ccc2c(c1)CN(C1CCC(=O)NC1=O)C2=O (stereo not shown) [Compound 130] | 
> 100 | O=C(C#Cc1cc(Cl)c(O)c(Cl)c1)NCc1ccc2c(c1)CN(C1CCC(=O)NC1=O)C2=O (stereo not shown) [Compound 100] | 
1 to 10 | O=C(C#Cc1ccc(O)cc1Cl)NCc1ccc2c(c1)CN(C1CCC(=O)NC1=O)C2=O (stereo not shown) [Compound 109] | 
< 1 | Nc1cc(C#CC(=O)NCc2ccc3c(c2)CN(C2CCC(=O)NC2=O)C3=O)ccc1F (stereo not shown) [Compound 54] | 
10 to 100 | O=C(C#Cc1cc2cn[nH]c2cc1F)NCc1ccc2c(c1)CN(C1CCC(=O)NC1=O)C2=O (stereo not shown) [Compound 129] | 
> 100 | O=C(C#Cc1ccc([N+](=O)[O-])cc1F)NCc1ccc2c(c1)CN(C1CCC(=O)NC1=O)C2=O (stereo not shown) [Compound 47] | 
1 to 10 | Cc1c(O)cccc1C#CC(=O)NCc1ccc2c(c1)CN(C1CCC(=O)NC1=O)C2=O (stereo not shown) [Compound 114] | 
1 to 10 | Cc1cc(O)ccc1C#CC(=O)NCc1ccc2c(c1)CN(C1CCC(=O)NC1=O)C2=O (stereo not shown) [Compound 112] | 
10 to 100 | O=C(C#Cc1nc2ccccc2s1)NCc1ccc2c(c1)CN(C1CCC(=O)NC1=O)C2=O (stereo not shown) [Compound 106] | 
10 to 100 | O=C(C#Cc1ccc(Cl)nc1)NCc1ccc2c(c1)CN(C1CCC(=O)NC1=O)C2=O (stereo not shown) [Compound 59] | 
< 1 | O=C(C#Cc1ccc(F)cc1)NCc1ccc2c(c1)CN(C1CCC(=O)NC1=O)C2=O (stereo not shown) [Compound 3] | 
1 to 10 | O=C(C#Cc1cccc(Cl)n1)NCc1ccc2c(c1)CN(C1CCC(=O)NC1=O)C2=O (stereo not shown) [Compound 40] | 
10 to 100 | O=C(C#Cc1ccc2[nH]ncc2c1)NCc1ccc2c(c1)CN(C1CCC(=O)NC1=O)C2=O (stereo not shown) [Compound 107] | 
1 to 10 | Cc1cc(O)cc(C)c1C#CC(=O)NCc1ccc2c(c1)CN(C1CCC(=O)NC1=O)C2=O (stereo not shown) [Compound 105] | 
10 to 100 | O=C(C#Cc1c(F)ccnc1F)NCc1ccc2c(c1)CN(C1CCC(=O)NC1=O)C2=O (stereo not shown) [Compound 68] | 
